The test system of this assay is CD8F1 mice, subcutaneous mammary adenocarcinoma, T/C%. Kind of assay: NCI In Vivo Anticancer Drug Screen. Data for tumor model Mammary Adenocarcinoma CD8F1 (subcutaneous) in CD8F1. Conditions: higher = larger tumour. The procedure, abridged: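 Compound-treated versus vehicle-treated mice with transplantable tumors; survival or tumor size compared as T/C.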
Setting [1] is: endpoint: median tumor weight (est.), dose: 50.0 mg/kg/injection, schedule: Q07DX005 (ip), vehicle: suspension in saline.
Where [2] appears, read: endpoint: median tumor weight (est.), dose: 100.0 mg/kg/injection, schedule: Q07DX005 (ip), vehicle: suspension in saline.
The mark [3] stands for this setting: endpoint: median tumor weight (est.), dose: 12.5 mg/kg/injection, schedule: Q07DX005 (ip), vehicle: saline with Tween-80.
Where [4] appears, read: endpoint: median tumor weight (est.), dose: 25.0 mg/kg/injection, schedule: Q07DX005 (ip), vehicle: saline with Tween-80.
[5] abbreviates: endpoint: median tumor weight (est.), dose: 100.0 mg/kg/injection, schedule: Q07DX005 (ip), vehicle: saline with Tween-80.
Setting [6] is: endpoint: median tumor weight (est.), dose: 50.0 mg/kg/injection, schedule: Q07DX005 (ip), vehicle: saline.

SMILES strings stand for the structures. Values joined by “and” are separate entries in the source; they are usually repeats but may differ in a detail not shown here. Identical values can stand only once. Records with an inconclusive call do not appear.

Regarding `CSc1cc(=O)n2c3ccccc3c3ccnc1c32`, the T/C runs as follows: (endpoint: median tumor weight (est.), dose: 2.5 mg/kg/injection, schedule: Q07DX005 (ip), vehicle: saline with Tween-80) 77 % of control; (endpoint: median tumor weight (est.), dose: 5.0 mg/kg/injection, schedule: Q07DX005 (ip), vehicle: saline with Tween-80) 74 % of control; (endpoint: median tumor weight (est.), dose: 10.0 mg/kg/injection, schedule: Q07DX005 (ip), vehicle: saline with Tween-80) 74 % of control; (endpoint: median tumor weight (est.), dose: 20.0 mg/kg/injection, schedule: Q07DX005 (ip), vehicle: saline with Tween-80) 65 % of control; (endpoint: median tumor weight (est.), dose: 40.0 mg/kg/injection, schedule: Q07DX005 (ip), vehicle: saline with Tween-80) 119 % of control; (endpoint: median tumor weight (est.), dose: 80.0 mg/kg/injection, schedule: Q07DX005 (ip), vehicle: saline with Tween-80) 59 % of control.
For the compound `COC(=O)[C@@H]1c2cc3c(c(O)c2[C@@H](OC)C[C@@]1(C)O)C(=O)c1c(O)cc2c(c1C3=O)OC1O[C@@]2(C)[C@H](O)[C@@H](N(C)C)[C@@H]1O`, the T/C reads like this: (endpoint: median tumor weight (est.), dose: 12.5 mg/kg/injection, schedule: Q07DX005 (ip), vehicle: suspension in saline) 73 % of control; under setting [1], 61 % of control and 66 % of control; under setting [2], 151 % of control.
In the case of `CCSC(=O)N1c2ccc(OC)cc2C=CC1C#N` (configuration not stated), the T/C reads like this: under setting [3], 93 % of control; under setting [4], 93 % of control; (endpoint: median tumor weight (est.), dose: 50.0 mg/kg/injection, schedule: Q07DX005 (ip), vehicle: saline with Tween-80) 69 % of control; under setting [5], 90 % of control; (endpoint: median tumor weight (est.), dose: 225.0 mg/kg/injection, schedule: Q07DX005 (ip), vehicle: saline with Tween-80) 59 % of control; (endpoint: median tumor weight (est.), dose: 400.0 mg/kg/injection, schedule: Q07DX005 (ip), vehicle: saline with Tween-80) 97 % of control. Also, the T/C by setting is: (endpoint: median tumor weight (est.), dose: 450.0 mg/kg/injection, schedule: Q07DX005 (ip), vehicle: saline with Tween-80) 95 % of control; (endpoint: median tumor weight (est.), dose: 900.0 mg/kg/injection, schedule: Q07DX005 (ip), vehicle: saline with Tween-80) 78 % of control.
Regarding `Nc1ncnc2c1ncn2C1OC(CO)C(O)C1O` (configuration not stated), the T/C is, setting by setting: (endpoint: median tumor weight (est.), dose: 16.0 mg/kg/injection, schedule: Q07DX005 (ip), vehicle: Klucel (hydroxypropylcellulose) (HPC)) 103 % of control; (endpoint: median tumor weight (est.), dose: 37.5 mg/kg/injection, schedule: Q07DX005 (ip), vehicle: saline) 47 % of control; (endpoint: median tumor weight (est.), dose: 75.0 mg/kg/injection, schedule: Q07DX005 (ip), vehicle: saline) 33 % of control; (endpoint: median tumor weight (est.), dose: 128.0 mg/kg/injection, schedule: Q07DX005 (ip), vehicle: Klucel (hydroxypropylcellulose) (HPC)) 83 % of control and 99 % of control; (endpoint: median tumor weight (est.), dose: 150.0 mg/kg/injection, schedule: Q07DX005 (ip), vehicle: saline) 47 % of control; (endpoint: median tumor weight (est.), dose: 300.0 mg/kg/injection, schedule: Q07DX005 (ip), vehicle: saline) 88 % of control. Moreover, the T/C (endpoint: median tumor weight (est.), dose: 600.0 mg/kg/injection, schedule: Q07DX005 (ip), vehicle: saline) was 71 % of control and the T/C (endpoint: median tumor weight (est.), dose: 1200.0 mg/kg/injection, schedule: Q07DX005 (ip), vehicle: saline) was 60 % of control.
In the case of `CC[n+]1c(-c2ccccc2)c2cc(N)ccc2c2ccc(N)cc21`, the T/C by setting is: (endpoint: median tumor weight (est.), dose: 10.0 mg/kg/injection, schedule: Q07DX005 (ip), vehicle: water) 85 % of control; (endpoint: median tumor weight (est.), dose: 20.0 mg/kg/injection, schedule: Q07DX005 (ip), vehicle: water) 105 % of control.
With `O=NN(CCCl)C(=O)NC1[C@H](O)CCC[C@@H]1O` (some centres not stated), the T/C runs as follows: (endpoint: median tumor weight change, dose: 6.25 mg/kg/injection, schedule: Q01DX001 (ip), vehicle: saline) 71 % of control and 73 % of control; (endpoint: median tumor weight change, dose: 12.5 mg/kg/injection, schedule: Q01DX001 (ip), vehicle: saline) 15 % of control and 17 % of control; (endpoint: median tumor weight change, dose: 25.0 mg/kg/injection, schedule: Q01DX001 (ip), vehicle: saline) 6 % of control.
Regarding `CNc1n[n+](-c2ccccc2)no1`, the T/C is, setting by setting: (endpoint: mean tumor weight, dose: 3.12 mg/kg/injection, schedule: Q07DX006 (ip), vehicle: saline) 90 % of control; (endpoint: mean tumor weight, dose: 12.5 mg/kg/injection, schedule: Q07DX006 (ip), vehicle: saline) 27 % of control; (endpoint: mean tumor weight, dose: 25.0 mg/kg/injection, schedule: Q07DX006 (ip), vehicle: saline) 81 % of control; (endpoint: mean tumor weight, dose: 50.0 mg/kg/injection, schedule: Q07DX006 (ip), vehicle: saline) 2 % of control; (endpoint: median tumor weight (est.), dose: 3.12 mg/kg/injection, schedule: Q07DX005 (ip), vehicle: saline) 157 % of control; under setting [6], 50 % of control and 60 % of control.
Take `Nc1ccc2ccc(NS(=O)(=O)N3CCCCC3)cc2c1`: the T/C is, setting by setting: (endpoint: median tumor weight change, dose: 125.0 mg/kg/injection, schedule: Q01DX001 (ip), vehicle: saline with Tween-80) 66 % of control; (endpoint: median tumor weight change, dose: 250.0 mg/kg/injection, schedule: Q01DX001 (ip), vehicle: saline with Tween-80) 73 % of control; (endpoint: median tumor weight change, dose: 500.0 mg/kg/injection, schedule: Q01DX001 (ip), vehicle: saline with Tween-80) 87 % of control; (endpoint: median tumor weight change, dose: 1000.0 mg/kg/injection, schedule: Q01DX001 (ip), vehicle: saline with Tween-80) 31 % of control.
With `CNc1nc2c(N)ncnc2n1C1OC(CO)C(O)C1O` (configuration not stated), the T/C (endpoint: median tumor weight (est.), dose: 25.0 mg/kg/injection, schedule: Q07DX005 (ip), vehicle: suspension in saline) was 89 % of control and 91 % of control; the T/C under setting [1] was 76 % of control and 96 % of control; the T/C under setting [2] was 29 % of control.
For the compound `COc1cccc2c1C(=O)c1c(O)c3c(c(O)c1C2=O)C[C@@](O)(C(=O)CO)C[C@@H]3OC1CC(N)CC(C)O1` (some centres not stated), the T/C is, setting by setting: (endpoint: median tumor weight change, dose: 1.8 mg/kg/injection, schedule: Q01DX001 (ip), vehicle: water) 187 % of control; (endpoint: median tumor weight change, dose: 3.75 mg/kg/injection, schedule: Q01DX001 (ip), vehicle: water) 94 % of control.
For `CN1CCN(CCCN2c3ccccc3Sc3ccc(C(F)(F)F)cc32)CC1`, the T/C (endpoint: median tumor weight (est.), dose: 6.25 mg/kg/injection, schedule: Q07DX005 (ip), vehicle: saline with Tween-80) was 178 % of control; the T/C (endpoint: median tumor weight (est.), dose: 6.25 mg/kg/injection, schedule: Q07DX005 (ip), vehicle: saline) was 183 % of control; the T/C under setting [3] is 202 % of control; the T/C (endpoint: median tumor weight (est.), dose: 12.5 mg/kg/injection, schedule: Q07DX005 (ip), vehicle: saline) was 97 % of control; the T/C under setting [4] was 65 % of control; the T/C (endpoint: median tumor weight (est.), dose: 25.0 mg/kg/injection, schedule: Q07DX005 (ip), vehicle: saline) is 108 % of control. The T/C was 162 % of control under setting [6]; 95 % of control under setting [5]; 70 % of control (endpoint: median tumor weight (est.), dose: 100.0 mg/kg/injection, schedule: Q07DX005 (ip), vehicle: saline).
For the compound `C/C=C/C1=CC(=O)C(O)C1O` (configuration not stated), the T/C runs as follows: (endpoint: median tumor weight (est.), dose: 45.0 mg/kg/injection, schedule: Q07DX005 (ip), vehicle: water) 122 % of control; (endpoint: median tumor weight (est.), dose: 90.0 mg/kg/injection, schedule: Q07DX005 (ip), vehicle: water) 78 % of control; (endpoint: median tumor weight (est.), dose: 180.0 mg/kg/injection, schedule: Q07DX005 (ip), vehicle: water) 107 % of control.

The record behind these values is PubChem BioAssay AID220 (DTP/NCI, 2004).
